Laboratory results taken from paper PMC4645160, “Targeting kinases with anilinopyrimidines: discovery of N-phenyl-N’-[4-(pyrimidin-4-ylamino)phenyl]urea derivatives as selective inhibitors of class III receptor tyrosine kinase subfamily” (Scientific Reports, 2015).

Assays:
BxPC3 cells = experiment: MTT cytotoxicity assay, BxPC3 pancreatic adenocarcinoma cells; format: cell-based, human; details: for IC50: Homo sapiens, BXPC-3, MTT test, 72 h of drug treatment, read-out: BxPC3 IC50 (μM) ± SD
Method: (§1) Compounds active against at least one kinase among EGFR and class III RTKs were evaluated for their cytotoxic properties against two different human cancer cell lines, namely non small cells A549 lung cancer cells (sensitive to EGFR inhibitors)[46] and pancreatic BxPC3 adenocarcinoma (sensitive to both PDGFRβ and EGFR inhibitors)[47][48] cells. […] The results, expressed as IC50 values (μM) calculated from the dose-survival curves obtained after 72 h of drug treatment from the MTT test, are reported in Table 1.
(§2) All compounds, except derivative 27, were dissolved in DMSO just before the experiment, and a calculated amount of drug solution was added to the cell growth medium to a final solvent concentration of 0.5%, which had no discernible effect on cell killing. Compound 27 was dissolved in a 0.9% NaCl solution just before the experiment.
(§3) Human lung (A549), breast (MCF-7), pancreas (BxPC3), and colon (LoVo) carcinoma cell lines along with melanoma (A375) were obtained from American Type Culture Collection (ATCC, Rockville, MD). Human non-tumor embryonic kidney HEK293 cells were obtained from European Collection of Cell Cultures (ECACC, Salisbury, UK). Human cervical carcinoma A431cells were kindly provided by Prof. F. Zunino (Division of Experimental Oncology B, Istituto Nazionale dei Tumori, Milan, Italy). Human ovarian cancer 2008 cells were kindly provided by Prof. G. Marverti (Dept. of Biomedical Science of Modena University, Italy). Cell lines were maintained in the logarithmic phase at 37 °C in a 5% carbon dioxide atmosphere using the following culture media containing 10% fetal calf serum (Euroclone, Milan, Italy), antibiotics (50 units ∙ mL^−1 penicillin and 50 μg ∙ mL^−1 streptomycin) and 2 mM l-glutamine: i) RPMI-1640 medium (Euroclone) for MCF-7, A431, BxPC3 and 2008 cells; ii) F-12 HAM’S (Sigma Chemical Co.) for A549 and LoVo cells; iii) D-MEM medium (Euroclone) for HEK293 cells.
(§4) The growth inhibitory effect towards human cell lines was evaluated by means of MTT (tetrazolium salt reduction) assay. Briefly, 3–8 ∙ 10^3 cells/well, dependent upon the growth characteristics of the cell line, were seeded in 96-well microplates in growth medium (100 μL) and then incubated at 37 °C in a 5% carbon dioxide atmosphere. After 24 h, the medium was removed and replaced with a fresh one containing the test compound at the appropriate concentration. Triplicate cultures were established for each treatment. After 72 h, each well was treated with 10 μL of a 5 mg ∙ mL-1 MTT (3-(4,5-dimethylthiazol-2-yl)-2,5-diphenyltetrazolium bromide) saline solution, and after 5 h additional incubation, 100 μL of a sodium dodecylsulfate (SDS) solution in HCl 0.01 M were added. After overnight incubation, the inhibition of cell growth induced by the tested complexes was detected by measuring the absorbance of each well at 570 nm using a Bio-Rad 680 microplate reader (Bio-Rad, Hercules, CA). Mean absorbance for each drug dose was expressed as a percentage of the control untreated well absorbance and plotted vs drug concentration.

A549 cells = experiment: MTT cytotoxicity assay, A549 lung cancer cells; format: cell-based, human; details: for IC50: Homo sapiens, A549, 72 h, MTT test, 72 h of drug treatment, read-out: A549 IC50 (μM) ± SD
Method: as §1, §2, §3, §4

EGFR = molecular target: T1, EGFR (Homo sapiens, UniProt P00533); experiment: KinomeScan primary screening (POC) at 10 μM, EGFR; format: binding; details: POC values
T1 construct: purchased DiscoverX (KinomeScan, ScanEDGE subset)
Method: Synthesized compounds were screened against a panel of 48 kinases selected within the ScanEDGE subset of DiscoverX (http://www.discoverx.com/services/drug-discovery-development-services/kinase-profiling/kinomescan/scanedge). The ScanEDGE includes 97 kinases and is an economical approach to assess compounds selectivity throughout the human kinome. All the wt-TKs along with some relevant mutants of Abl1 (T315I) and of EGFR (L858R and L858R/T790M) were chosen. […]
The compounds were evaluated using the KinomeScan™ platform (http://www.discoverx.com/services/drug-discovery-development-services/kinase-profiling/kinomescan), that measures the ability of the test compound to disrupt the complex between a high affinity ATP-mimic probe immobilized on a solid support and the kinase of interest. […] The POC is calculated as reported in equation (1): […]
(§5) The compounds were tested at high concentration (10 μM), in order to highlight not only the main target but also the off-targets. The results of the preliminary screening are reported as heat map (Fig. 4; see also Table S4 for all the measured values), in which the compounds are grouped on the basis of the 6 or 5 substituent at the pyrimidine ring.

panel of 48 kinases = experiment: KinomeScan primary screening (POC) at 10 μM; format: binding, human; details: POC values
Description: Synthesized compounds were screened against a panel of 48 kinases selected within the ScanEDGE subset of DiscoverX (http://www.discoverx.com/services/drug-discovery-development-services/kinase-profiling/kinomescan/scanedge). The ScanEDGE includes 97 kinases and is an economical approach to assess compounds selectivity throughout the human kinome. All the wt-TKs along with some relevant mutants of Abl1 (T315I) and of EGFR (L858R and L858R/T790M) were chosen. The remaining 18 targets (3 Tyrosine Kinases-Like, TKLs; 15 Serine-Threonine Kinases, STKs) were selected among the remaining kinases in the ScanEDGE subset on the basis of their well established role in cancer (see Fig. S2 for a graphical representation of the selected kinases with reference to the kinome tree. Some references highlighting the role of each kinase in cancer are also reported in Table S3).
The compounds were evaluated using the KinomeScan™ platform (http://www.discoverx.com/services/drug-discovery-development-services/kinase-profiling/kinomescan), that measures the ability of the test compound to disrupt the complex between a high affinity ATP-mimic probe immobilized on a solid support and the kinase of interest. The KinomeScan is a very helpful technology for the fast and reliable screening of a number of compounds against a wide and customizable panel of kinases. Besides, it is not based on the use of hazardous radioactive ^32P-ATP and has a very low rate of false positive (<1%)[44]. The screening platform outputs a “Percent of Control” (POC) value, statistically correlated to the dissociation constant (Kd) value (http://www.discoverx.com/tools-resources/leadhunter-study-reports-data-analysis), for each pair of kinase/ligand. The POC is calculated as reported in equation (1):
Where: test compound signal = amount of kinase still binding the probe after treatment with test compound; negative control signal = amount of kinase still binding the probe after treatment with DMSO (100% control); positive control signal = amount of kinase still binding the probe after treatment with control compound (0% control).
as §5

HEK293 cells = experiment: MTT cytotoxicity assay, non-tumor HEK293 cells; format: cell-based, human; details: for IC50: Homo sapiens, HEK293, MTT test, 72 h, non-tumor cells, read-out: HEK293 IC50 (μM) ± SD
Method: F. Zunino (Division of Experimental Oncology B, Istituto Nazionale dei Tumori, Milan, Italy).
The growth inhibitory effect towards human cell lines was evaluated by means of MTT (tetrazolium salt reduction) assay. […] Triplicate cultures were established for each treatment.

MCF-7 cells = experiment: MTT cytotoxicity assay, MCF-7 breast cancer cells; format: cell-based; details: Homo sapiens, MCF7; MTT test, 72 h; read-out: MCF-7 IC50 (μM) ± SD
Method: (§6) The cytotoxic profile of 19 and 27 was assessed on a wider panel of human tumor cell lines including also examples of breast (MCF-7), cervical (A431), colorectal (HCT-15), and ovarian (2008) cancers as well as melanoma (A375), besides lung (A549) and pancreatic (BxPC3) cancer cells. IC50 values, calculated from the dose-survival curves obtained after 72 h of drug treatment from the MTT test, are reported in Table 2. […] Both compounds were endowed with a cytotoxic potency higher than that of SU, eliciting IC50 values in the low micromolar range.
as §2
(§7) Human lung (A549), breast (MCF-7), pancreas (BxPC3), and colon (LoVo) carcinoma cell lines along with melanoma (A375) were obtained from American Type Culture Collection (ATCC, Rockville, MD). Human non-tumor embryonic kidney HEK293 cells were obtained from European Collection of Cell Cultures (ECACC, Salisbury, UK). Human cervical carcinoma A431cells were kindly provided by Prof. F. Zunino (Division of Experimental Oncology B, Istituto Nazionale dei Tumori, Milan, Italy). Human ovarian cancer 2008 cells were kindly provided by Prof. G. Marverti (Dept. of Biomedical Science of Modena University, Italy). […]
(§8) The growth inhibitory effect towards human cell lines was evaluated by means of MTT (tetrazolium salt reduction) assay. […] After overnight incubation, the inhibition of cell growth induced by the tested complexes was detected by measuring the absorbance of each well at 570 nm using a Bio-Rad 680 microplate reader (Bio-Rad, Hercules, CA). Mean absorbance for each drug dose was expressed as a percentage of the control untreated well absorbance and plotted vs drug concentration.

2008 cells = experiment: MTT cytotoxicity assay, 2008 ovarian cancer cells; format: cell-based; details: Homo sapiens; MTT test, 72 h; read-out: 2008 IC50 (μM) ± SD
Method: as §6, §2, §7, §8

LoVo cells = experiment: MTT cytotoxicity assay, LoVo colon carcinoma cells; format: cell-based; details: Homo sapiens, MTT test, 72 h, read-out: LoVo IC50 (μM) ± SD
Method: as §6, §2, §7, §8

A375 cells = experiment: MTT cytotoxicity assay, A375 melanoma cells; format: cell-based; details: Homo sapiens, A-375; MTT test, 72 h; read-out: A375 IC50 (μM) ± SD
Method: as §6, §2, §7, §8

T1 sequence (P00533 25-1210): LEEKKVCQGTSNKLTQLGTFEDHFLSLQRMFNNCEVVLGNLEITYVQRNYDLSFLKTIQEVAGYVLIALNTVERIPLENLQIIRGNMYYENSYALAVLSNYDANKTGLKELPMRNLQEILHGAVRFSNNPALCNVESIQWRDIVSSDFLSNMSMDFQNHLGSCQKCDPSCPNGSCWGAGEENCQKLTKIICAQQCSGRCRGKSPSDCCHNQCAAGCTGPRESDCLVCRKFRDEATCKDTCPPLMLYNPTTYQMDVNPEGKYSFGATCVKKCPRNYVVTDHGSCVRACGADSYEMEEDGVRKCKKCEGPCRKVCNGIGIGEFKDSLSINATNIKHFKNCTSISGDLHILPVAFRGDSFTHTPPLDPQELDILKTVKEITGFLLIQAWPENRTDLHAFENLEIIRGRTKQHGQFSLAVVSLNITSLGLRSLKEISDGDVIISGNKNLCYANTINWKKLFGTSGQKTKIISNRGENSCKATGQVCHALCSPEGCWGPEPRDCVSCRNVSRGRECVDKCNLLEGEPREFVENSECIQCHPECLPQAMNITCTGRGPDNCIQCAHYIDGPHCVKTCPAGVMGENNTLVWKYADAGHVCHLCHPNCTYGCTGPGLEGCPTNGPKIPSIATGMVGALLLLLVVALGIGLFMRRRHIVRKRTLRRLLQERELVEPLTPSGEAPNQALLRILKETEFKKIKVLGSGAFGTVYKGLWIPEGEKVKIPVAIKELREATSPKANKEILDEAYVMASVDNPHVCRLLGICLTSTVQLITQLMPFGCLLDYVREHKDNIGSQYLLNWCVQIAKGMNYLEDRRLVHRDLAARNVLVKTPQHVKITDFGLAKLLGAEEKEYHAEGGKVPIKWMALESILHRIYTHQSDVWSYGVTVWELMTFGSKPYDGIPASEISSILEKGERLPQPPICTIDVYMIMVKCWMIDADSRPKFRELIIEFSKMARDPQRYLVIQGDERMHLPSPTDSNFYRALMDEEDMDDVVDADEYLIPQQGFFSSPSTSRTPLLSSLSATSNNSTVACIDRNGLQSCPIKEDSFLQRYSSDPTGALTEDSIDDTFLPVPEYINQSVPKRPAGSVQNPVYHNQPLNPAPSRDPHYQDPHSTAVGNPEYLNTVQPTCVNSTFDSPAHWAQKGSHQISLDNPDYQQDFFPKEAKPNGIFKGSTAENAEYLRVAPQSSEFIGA

## O=C(Nc1ccccc1)Nc1ccc(Nc2cc(Nc3ccccc3)ncn2)cc1 [Compound 7]
BxPC3 cells
  IC50: 4.6 ± 0.85 µM
BxPC3 cells; ratio between IC50 of sunitinib and IC50 of tested compound, BxPC3
  Potency relative to SU (BxPC3): 1.10
A549 cells
  IC50: 5.13 ± 0.94 µM
A549 cells; ratio between IC50 of sunitinib and IC50 of tested compound, A549
  Potency relative to SU (A549): 1.21
EGFR
  Activity against EGFR in primary screening: very poor activity
Panel of 48 kinases
  Selectivity profile (kinases targeted) in primary screening: class III RTK
HEK293 cells
  IC50: 3.14 ± 0.57 µM
HEK293 cells; IC50 toward non cancerous HEK293 cells divided by the average IC50 for the malignant cells (A549, BxPC3)
  Selectivity Index: 0.64

## CCN(CC)CCNC(=O)c1c(C)[nH]c(/C=C2\C(=O)Nc3ccc(F)cc32)c1C [SU, sunitinib, reference compound]
BxPC3 cells
  IC50: 5.05 ± 1.34 µM
A549 cells
  IC50: 6.22 ± 1.84 µM
MCF-7 cells
  IC50: 2.58 ± 0.85 µM
2008 cells
  IC50: 3.52 ± 1.22 µM
LoVo cells
  IC50: 8.18 ± 2.67 µM
A375 cells
  IC50: 8.25 ± 2.88 µM
HEK293 cells
  IC50: 12.2 ± 2.83 µM
